In the supplement of paper PMC11451515:

Tested on: NOMO1
Experiment: cell viability relative to DMSO control; higher = less cytotoxic
Conditions: 48 h
Outline: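 Viability values are per-plate percentages of DMSO wells, with background from cell-free wells. Library compounds in DMSO were pin-dosed, in an 11-point threefold series from 47 μM to 0.79 nM, onto NOMO1 or SEM (500 cells/well) or P12-Ichikawa (1000 cells/well) leukemia cells in 1536-well plates (5 μl). Those cells had been adapted for at least four passages in each medium, and CellTiter-Glo One luminescence was read after 48 h at 37°C.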

[1] = HPLM + 10% dialyzed FBS, 0.000781 µM
[2] = HPLM + 10% dialyzed FBS, 0.00234 µM
[3] = HPLM + 10% dialyzed FBS, 0.00702 µM
[4] = HPLM + 10% dialyzed FBS, 0.0211 µM
[5] = HPLM + 10% dialyzed FBS, 0.0632 µM
[6] = HPLM + 10% dialyzed FBS, 0.19 µM
[7] = HPLM + 10% dialyzed FBS, 0.569 µM
[8] = HPLM + 10% dialyzed FBS, 1.71 µM
[9] = HPLM + 10% dialyzed FBS, 5.12 µM
[10] = HPLM + 10% dialyzed FBS, 15.4 µM
[11] = HPLM + 10% dialyzed FBS, 46.1 µM
[12] = RPMI 5 mM glucose + 10% FBS, 0.000781 µM
[13] = RPMI 5 mM glucose + 10% FBS, 0.00234 µM
[14] = RPMI 5 mM glucose + 10% FBS, 0.00702 µM
[15] = RPMI 5 mM glucose + 10% FBS, 0.0211 µM
[16] = RPMI 5 mM glucose + 10% FBS, 0.0632 µM
[17] = RPMI 5 mM glucose + 10% FBS, 0.19 µM
[18] = RPMI 5 mM glucose + 10% FBS, 0.569 µM
[19] = RPMI 5 mM glucose + 10% FBS, 1.71 µM
[20] = RPMI 5 mM glucose + 10% FBS, 5.12 µM
[21] = RPMI 5 mM glucose + 10% FBS, 15.4 µM
[22] = RPMI 5 mM glucose + 10% FBS, 46.1 µM
[23] = RPMI 5 mM glucose + 10% dialyzed FBS, 0.000781 µM
[24] = RPMI 5 mM glucose + 10% dialyzed FBS, 0.00234 µM
[25] = RPMI 5 mM glucose + 10% dialyzed FBS, 0.00702 µM
[26] = RPMI 5 mM glucose + 10% dialyzed FBS, 0.0211 µM
[27] = RPMI 5 mM glucose + 10% dialyzed FBS, 0.0632 µM
[28] = RPMI 5 mM glucose + 10% dialyzed FBS, 0.19 µM
[29] = RPMI 5 mM glucose + 10% dialyzed FBS, 0.569 µM
[30] = RPMI 5 mM glucose + 10% dialyzed FBS, 1.71 µM
[31] = RPMI 5 mM glucose + 10% dialyzed FBS, 5.12 µM
[32] = RPMI 5 mM glucose + 10% dialyzed FBS, 15.4 µM
[33] = RPMI 5 mM glucose + 10% dialyzed FBS, 46.1 µM

SMILES	cell viability [1]	cell viability [2]	cell viability [3]	cell viability [4]	cell viability [5]	cell viability [6]	cell viability [7]	cell viability [8]	cell viability [9]	cell viability [10]	cell viability [11]	cell viability [12]	cell viability [13]	cell viability [14]	cell viability [15]	cell viability [16]	cell viability [17]	cell viability [18]	cell viability [19]	cell viability [20]	cell viability [21]	cell viability [22]	cell viability [23]	cell viability [24]	cell viability [25]	cell viability [26]	cell viability [27]	cell viability [28]	cell viability [29]	cell viability [30]	cell viability [31]	cell viability [32]	cell viability [33]
COC1=CC=C(C(=C1)OC(C)C)C/2=N/[C@@H]([C@@H](N2C(=O)N3CCNC(=O)C3)C4=CC=C(Cl)C=C4)C5=CC=C(Cl)C=C5	119%	115%	114%	120%	119%	112%	124%	105%	96.1%	29.3%	5.33%	105%	118%	106%	100%	103%	103%	104%	103%	95.9%	78.1%	7.76%	100%	102%	104%	105%	102%	114%	106%	103%	90.8%	70.3%	17.7%
CN1\C=N/C2=CC=C(NC3=CC(=CC=C3C)NC(=O)C4=CC(=CC=C4)C(C)(C)C#N)C=C2C1=O	97.8%	107%	96.4%	105%	92.7%	94.6%	76.8%	76.3%	52.1%	52.7%	19.1%	93.6%	95.1%	111%	99%	89.6%	88.5%	81.2%	75.6%	47.7%	46.3%	28.1%	110%	92.4%	92.9%	101%	91.2%	79.2%	76.6%	65.5%	46.8%	46.3%	28.6%
Cc1ccc([S+](=O)([O-])OCC(=O)Nc2ccc(C(=O)O)c(O)c2)cc1	141%	123%	121%	117%	124%	145%	128%	132%	124%	146%	84.1%	122%	119%	124%	139%	133%	150%	133%	130%	118%	121%	102%	106%	113%	127%	121%	131%	139%	142%	142%	146%	146%	122%
O=C(O)c1cc(/N=N/c2ccc([S+](=O)([O-])Nc3ccccn3)cc2)ccc1O	102%	113%	108%	104%	121%	109%	104%	115%	111%	105%	91%	101%	107%	115%	96.8%	99.2%	102%	102%	98.2%	114%	98.7%	97.6%	95.1%	96.9%	109%	94.3%	106%	97%	115%	111%	91.2%	98.9%	102%
Cc1ccnc2c1NC(=O)c1cccnc1N2C1CC1	102%	104%	98.7%	121%	112%	112%	113%	89.7%	55.3%	61.4%	35.8%	85.2%	107%	93.1%	100%	103%	118%	93.3%	84.1%	59.3%	68.1%	59.1%	94.8%	102%	110%	98.6%	113%	97.1%	110%	97.4%	52.7%	79.4%	79.4%
NC(=O)c1ccc(N(C(N)=O)c2c(F)cccc2F)nc1-c1ccc(F)cc1F	90%	103%	113%	104%	115%	115%	95.3%	114%	99.6%	94.8%	111%	80.4%	86.9%	95.4%	100%	94.3%	93.8%	95.2%	105%	101%	84.9%	88%	78.2%	92.4%	91.1%	99.1%	85.4%	91.6%	95%	87.4%	93.6%	80.4%	94.3%
CN(C)CC(C)(C)CNc1nn2c(-c3ccccc3)nnc2cc1C1CCC1	113%	110%	117%	126%	113%	109%	116%	110%	91.9%	39.5%	22.4%	107%	98.4%	103%	123%	103%	110%	111%	122%	116%	87%	15.6%	91.6%	110%	103%	105%	102%	95.5%	116%	109%	100%	103%	27.7%
